# Like-named read-outs stand apart in the source and are kept apart here.
# Columns and labels:
# [1] = test system: immunologic reactions / rheumatoid arthritis; settings: background; cited from earlier work
# [2] = test system: B lymphocytes in spleen cell suspensions; settings: for effect on B lymphocyte proportion / lymphocyte population: arthritic rats
# [3] = test system: established adjuvant-induced arthritis in rats; assay: Established adjuvant-induced arthritis in rats (therapeutic, paw volume); assay type: in vivo, Charles River Lewis male rats; settings: Rattus norvegicus
# [4] = test system: plaque forming (antibody producing) spleen cells of rats with adjuvant-induced arthritis; assay: Modified Jerne spleen cell hemolytic plaque assay; assay type: in vivo, rats (Charles River Lewis); settings: for effect on number of plaque forming cells (PFC): arthritic rats
# Procedure: MODIFIED JERNE SPLEEN CELL HEMOLYTIC PLAQUE ASSAY
# A modification of the technique described by N. K. Jerne and A. A. Nordin (Science, 140, 450, 1963) was used in these studies. Rats (Charles River Lewis) with adjuvant-induced arthritis (and non-arthritic controls) were dosed orally ounce per day with PVA-Acacia vehicle* or compounds in vehicle from day 14 (following adjuvant injection) to day 20. The animals were sensitized with sheep red blood cells (SRBC) (0.2 ml of a 10% suspension=[…]) I.V. on day 17. The SRBC (Microbiological Associates) were washed 3 times in 0.9% sodium chloride solution prior to injection. On day 21 the rats were anesthetized with 1% sodium pentobarbital I.P. and the spleens were removed. Each spleen was placed on a stainless steel screen suspended over a plastic beaker in an ice bath and gently macerated with a glass syringe plunger. The cells were washed through the mesh into the beaker using a pasteur pipette to apply about 10 ml of Eagle's Minimal Essential Medium (MEM) during the maceration process until only fibrous material remained on the screen. Large particles were allowed to settle out for about 5 minutes and about 5 ml of supernatant was transferred to a plastic tube. Dilutions of 1:10 and 1:20 were made in cold MEM.
# Plating: 2 ml of 0.7% Agarose (1.4% diluted 1:2 with 2X Eagles MEM) and 0.2 ml of a 10% SRBC suspension were pre-warmed in a 45° C. water bath. 20 Lambda of spleen cell dilution were added, mixed gently and poured into a supporting layer of 2 ml of 1.4% Agarose in a 60×15 mm plastic petri plate. Plates were incubated at 37° C. for 1.5 hours in a humidified incubator. 1.5 ml of guinea pig complement (diluted 1:10 with MEM) was added and incubation was continued for 1 hour longer.
# Zones of hemolysis (plaques) per plate were counted without magnification against a diffuse light source. Assuming each plaque to have resulted from hemolysin produced by a single spleen cell, the number of plaque forming cells (PFC) per million spleen cells was calculated for each dilution. The statistical calculations (mean, standard error and "t" test) included the PFC/million count for each dilution of each spleen.
# [5] = test system: non-established adjuvant-induced arthritis in rats; assay: Non-established adjuvant-induced arthritis in rats (prevention of development, paw volume); assay type: in vivo, Charles River Lewis male rats; settings: for ED50: Rattus norvegicus, read-out: ED50% non-established arthritis; for effectiveness in preventing development of arthritis compared with treating established arthritis: non-established vs established arthritis, rats
# Procedure: Non-Established Adjuvant-Induces Arthritis in Rats
# A test used primarily to determine the effects of compounds on the immunological reactions involved in the induction process and to prevent the development of arthritis.
# Charles River Lewis male rats (130-150 grams) are injected subcutaneously in the plantar area of the right hind paw with 0.1 ml of adjuvant (Difco heat-killed, lyophilized Mycobacterium butyricum suspended in mineral oil 5 mg/ml). 40 Non-arthritic controls are injected with mineral oil. Groups of 20 rats are given single, daily oral doses of compound (in PVA-Acacia vehicle, 10 ml/kg) or vehicle by gavage beginning immediately following paw injection for a total of 14 doses. The paw volume of the uninjected (left) hind paw is measured 24 hours after the last dose using a Ugo Basile Volume differential meter Model 7101. The ED50% decrease from control is determined as described above.
# [6] = po, Table V, read-out: ED50% established arthritis
# [7] = Table V, oral, 14 daily doses from adjuvant injection
# [8] = po, established arthritis, 7 daily doses, ED50% decrease from control paw volume, Tables I-III, read-out: Adjuvant Arthritis (ED50%)
smiles,measurement,setting,value
"O=P1(N(CCCl)CCCl)NCCCO1 (centres unmarked) [Cyclophosphamide, reference compound]",effectiveness in treatment of rheumatoid arthritis,[1],effective in the treatment of rheumatoid arthritis
same,toxicity for wide-spread use,[1],too toxic for wide-spread use
same,effect on B lymphocyte proportion / lymphocyte population,[2],reduced the B lymphocyte proportion to below normal
same,mean % B cells,[2]; daily oral dose 5 mg/kg,25%
same,ED50,[3]; [6],10 mg/kg
same,effect on number of plaque forming cells (PFC),[4],reduced the PFC far below normal
same,mean plaque forming cells per million spleen cells (N = 20),[4]; daily oral dose 5.0 mg/kg,25 cells per million spleen cells
same,ED50,[5]; [7],1.5 mg/kg
same,effectiveness in preventing development of arthritis compared with treating established arthritis,[5],more effective in preventing the development of arthritis in rats than in treating established arthritis in rats
"FC(F)C(F)(F)Sc1nc(-c2ccccc2)c(-c2ccccc2)[nH]1 [Example 18, 4,5-Diphenyl-2-(1,1,2,2-tetrafluoroethylthio)imidazole]",mean % B cells,"[2]; daily oral dose 1.5 mg/kg, pooled data from 2 experiments (N = 10)",37%
same,mean % B cells,"[2]; daily oral dose 15 mg/kg, pooled data from 2 experiments (N = 10)",34%
same,ED50,[3]; [6],0.75 mg/kg
same,ED50,[3]; [8],0.75 mg/kg
same,mean plaque forming cells per million spleen cells (N = 20),[4]; daily oral dose 1.5 mg/kg,197 cells per million spleen cells
same,mean plaque forming cells per million spleen cells (N = 20),[4]; daily oral dose 15 mg/kg,320 cells per million spleen cells
same,ED50,[5]; [7],2.3 mg/kg
FC(F)C(F)(F)Sc1nc(-c2ccc(Cl)cc2)c(-c2ccc(Cl)cc2)[nH]1 [Example 39],mean % B cells,"[2]; daily oral dose 0.2 mg/kg, pooled data from 2 experiments (N = 10)",37%
same,mean % B cells,"[2]; daily oral dose 2.0 mg/kg, pooled data from 2 experiments (N = 10)",35%
same,ED50,[3]; [6],0.2 mg/kg
same,ED50,[3]; [8],0.3 mg/kg
same,mean plaque forming cells per million spleen cells (N = 20),[4]; daily oral dose 0.1 mg/kg,788 cells per million spleen cells
same,mean plaque forming cells per million spleen cells (N = 20),[4]; daily oral dose 1.0 mg/kg,488 cells per million spleen cells
same,ED50,[5]; [7],0.06 mg/kg
"O=S(=O)(c1nc(-c2ccc(F)cc2)c(-c2ccc(F)cc2)[nH]1)C(F)(F)C(F)F [Example 71, 4,5-bis(4-fluorophenyl)-2-(1,1,2,2-tetrafluoroethylsulfonyl)imidazole]",mean % B cells,"[2]; daily oral dose 0.03 mg/kg, pooled data from 3 experiments (N = 15)",38%
same,mean % B cells,"[2]; daily oral dose 0.3 mg/kg, pooled data from 3 experiments (N = 15)",41%
same,ED50,[3]; [6],0.03 mg/kg
same,ED50,[3]; [8],0.025 mg/kg
same,mean plaque forming cells per million spleen cells (N = 20),[4]; daily oral dose 0.03 mg/kg,499 cells per million spleen cells
same,mean plaque forming cells per million spleen cells (N = 20),[4]; daily oral dose 0.3 mg/kg,439 cells per million spleen cells
same,ED50,[5]; [7],0.03 mg/kg
"O=S(=O)(c1nc(-c2ccc(Cl)cc2)c(-c2ccccc2)[nH]1)C(F)(F)C(F)F [Example 86, 4(or 5)-(4-chlorophenyl)-5(or 4)-phenyl-2-(1,1,2,2-tetrafluoroethylsulfonyl)imidazole]",mean % B cells,[2]; daily oral dose 0.1 mg/kg,48%
same,mean % B cells,[2]; daily oral dose 1.0 mg/kg,42%
same,ED50,[3]; [8],0.065 mg/kg
same,mean plaque forming cells per million spleen cells (N = 20),[4]; daily oral dose 0.07 mg/kg,412 cells per million spleen cells
same,mean plaque forming cells per million spleen cells (N = 20),[4]; daily oral dose 0.7 mg/kg,367 cells per million spleen cells
"COc1ccc2c(c1)c(CC(=O)O)c(C)n2C(=O)c1ccc(Cl)cc1 [Indomethacin, reference compound]",effect on immunologic reactions in rheumatoid inflammation,[1],have no effect on these immunologic reactions
same,effect on B lymphocyte proportion / lymphocyte population,[2],had no effect on the lymphocyte population
same,mean % B cells,[2]; daily oral dose 0.5 mg/kg,57%
same,ED50,"[3]; Table V, oral, read-out: ED50% established arthritis",0.3 mg/kg
same,effect on number of plaque forming cells (PFC),[4],had no effect on the number of PFC
same,mean plaque forming cells per million spleen cells (N = 20),[4]; daily oral dose 1.0 mg/kg,694 cells per million spleen cells
same,ED50,[5]; po,3 mg/kg
same,effectiveness in preventing development of arthritis compared with treating established arthritis,[5],less effective in preventing the development of arthritis in rats than in treating the inflammation in established arthritis
CCCCC1C(=O)N(c2ccccc2)N(c2ccccc2)C1=O [Phenylbutazone],effect on immunologic reactions in rheumatoid inflammation,[1],have no effect on these immunologic reactions
same,mean % B cells,[2]; daily oral dose 20 mg/kg,53%
same,ED50,[3]; [6],10 mg/kg
same,ED50,[5]; [7],35 mg/kg
same,effectiveness in preventing development of arthritis compared with treating established arthritis,[5],less effective in preventing the development of arthritis in rats than in treating the inflammation in established arthritis
CC(=O)Oc1ccccc1C(=O)O [aspirin],effect on immunologic reactions in rheumatoid inflammation,[1],have no effect on these immunologic reactions
CC(C)Cc1ccc(C(C)C(=O)O)cc1 (centres unmarked) [ibuprofen],effect on immunologic reactions in rheumatoid inflammation,[1],have no effect on these immunologic reactions
